Among the data in ChEMBL document CHEMBL3044731, “Insecticidal Effects of Organotin(IV) Compounds on Plutella Xylostella (L.) Larvae. II. Inhibitory Potencies Against Acetylcholinesterase and Evidence for Synergism in Tests With Bacillus Thuringiensis(BER.) and Malathion” (Met Based Drugs, 1994) are LD50, IC50 and inhibition values, retold here.

Where “and” joins values, the source holds several entries; their conditions need not be identical. Equal values may be shown once.

Acetylcholinesterase (Plutella xylostella), sequence (Q8MZM0 entry or part of it): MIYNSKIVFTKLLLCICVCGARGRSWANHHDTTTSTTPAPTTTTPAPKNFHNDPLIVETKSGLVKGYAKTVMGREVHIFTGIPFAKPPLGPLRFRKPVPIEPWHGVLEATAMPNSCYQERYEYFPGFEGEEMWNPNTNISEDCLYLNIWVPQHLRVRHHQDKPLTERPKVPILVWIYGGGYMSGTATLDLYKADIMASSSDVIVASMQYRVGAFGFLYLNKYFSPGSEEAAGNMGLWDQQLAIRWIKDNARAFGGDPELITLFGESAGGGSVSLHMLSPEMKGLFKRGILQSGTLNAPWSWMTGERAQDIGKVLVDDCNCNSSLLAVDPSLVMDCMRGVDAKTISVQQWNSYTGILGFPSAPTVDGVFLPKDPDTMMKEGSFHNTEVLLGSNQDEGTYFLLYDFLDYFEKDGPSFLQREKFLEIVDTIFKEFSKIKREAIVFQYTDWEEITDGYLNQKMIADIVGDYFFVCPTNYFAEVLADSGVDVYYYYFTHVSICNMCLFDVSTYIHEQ

The first experiment relates to Plutella xylostella. The experiment in a line: Insecticidal activity against drug-resistant Plutella xylostella (diamondback moth) fourth-instar larvae exposed to compound through topical application followed by transfer onto fresh Brassica leaves assessed as insect mortality measured 48 hr post compound application. The class given is functional.
Details: not given
With “TRIPHENYLSTANNYL 2-(PHENYLCARBAMOYLTHIO)ACETATE”, the LD50 stood at 1.5 ×10⁻³ mol/L.
For “4-(2-oxo-2-(triphenylstannyloxy)ethoxy)benzoic acid”, the LD50 stood at 0.69 ×10⁻³ mol/L.
Still for that read-out and setting: to “TRIPHENYLSTANNYL 2-([sequence])ACETATE HYDRATE” belongs 24 ×10⁻³ mol/L.
“1-(tricyclopentylstannyl)-1H-1,2,4-triazole”: the LD50 amounted to 0.27 ×10⁻³ mol/L.
Turning to DICYCLOPENTYL(PHENYL)STANNANOL, the LD50 is 3.7 ×10⁻³ mol/L.
Still for that read-out and setting: under `CCOC(=O)CC(SP(=S)(OC)OC)C(=O)OCC` (configuration not stated) [MALATHION] stands 42.6 ×10⁻³ mol/L; under TRIPHENYLSTANNYL 2-([sequence])BENZOATE, 2.06 ×10⁻³ mol/L.
On the same count and under the same terms, under `CNC(=O)ON=C(C)SC` [METHOMYL] stands 1.43 ×10⁻³ mol/L; under “triphenylstannyl 2-(4-chlorophenoxy)acetate”, 2.26 ×10⁻³ mol/L.
In the case of “triphenylstannyl 2-(morpholine-4-carbonothioylthio)acetate”, the LD50 was 1.66 ×10⁻³ mol/L.
On the same count and under the same terms, to “triphenylstannyl 2-(4-nitrophenoxy)acetate” belongs 4.38 ×10⁻³ mol/L.
On the same count and under the same terms, to “triphenylstannyl 4-oxo-4-phenylbutanoate” belongs 1.84 ×10⁻³ mol/L; to “(4-chlorophenyl)diphenylstannyl 2-(dimethylcarbamothioylthio)acetate”, 2.36 ×10⁻³ mol/L; to “tricyclohexylstannyl 2-(quinolin-8-yloxy)acetate”, 0.57 ×10⁻³ mol/L.
The same measure, in the same setting: to TRIPHENYLSTANNYL 4-OXOPENTANOATE belongs 6.95 ×10⁻³ mol/L; to “tricyclohexylstannyl 2-(piperidine-1-carbonothioylthio)acetate”, 0.18 ×10⁻³ mol/L.
Regarding “triphenylstannyl 4-(2-carbamoylhydrazono)pentanoate”, the LD50 came to 2.22 ×10⁻³ mol/L.
As to “5-(triphenylstannylthio)-1,3,4-thiadiazol-2-amine”, the LD50 was 2.31 ×10⁻³ mol/L.
For “triphenylstannyl 2-((2-isopropyl-5-methylcyclohexyloxy)carbonothioylthio)acetate”, the LD50 was determined as 3.62 ×10⁻³ mol/L.
With TRIPHENYLSTANNYL 2-([sequence])ACETATE, the LD50 was 3.23 ×10⁻³ mol/L and 1.8 ×10⁻³ mol/L.
As for METHYL TRIPHENYLSTANNYL OXALATE, the LD50 is 4.5 ×10⁻³ mol/L.
The same measure, in the same setting: under “triphenylstannyl 2-(4-chlorophenylcarbamoylthio)acetate” stands 0.9 ×10⁻³ mol/L.
Still for that read-out and setting: under [sequence] 2-([sequence])ACETATE stands 1.78 ×10⁻³ mol/L; under “1-(cyclopentyldiphenylstannyl)-1H-1,2,4-triazole”, 7.85 ×10⁻³ mol/L; under TRIPHENYLSTANNYL ACETATE, 6.06 ×10⁻³ mol/L.
On the same count and under the same terms, under “1-(dicyclopentyl(phenyl)stannyl)-1H-1,2,4-triazole” stands 2.37 ×10⁻³ mol/L.

The target in another experiment is T1, Acetylcholinesterase (Plutella xylostella, UniProt Q8MZM0). In words: Inhibition of AChE in drug-sensitive Plutella xylostella (diamondback moth) fourth-instar larvae homogenates using acetylthiocholine iodide substrate by colorimetric method. The note with it: read-out: I50.
T1 sequence (Q8MZM0 whole entry): as the sequence (Q8MZM0 entry or part of it) above
With “TRIPHENYLSTANNYL 2-(DIMETHYLCARBAMOYLTHIO)ACETATE”, the IC50 amounted to 0.00543 mM.
As to “TRIPHENYLSTANNYL 2-(DIMETHYLCARBAMOTHIOYLTHIO)ACETATE”, the IC50 came out at 26.2 mM.

The target in the next experiment is T1, Acetylcholinesterase. The experiment in a line: Inhibition of AChE in drug-resistant Plutella xylostella (diamondback moth) fourth-instar larvae homogenates using acetylthiocholine iodide substrate by colorimetric method. The note with it: read-out: I50.
Take “TRIPHENYLSTANNYL 2-(DIMETHYLCARBAMOYLTHIO)ACETATE”: the IC50 turned out to be 13.1 mM.

A further experiment concerns the target Acetylcholinesterase (Plutella xylostella) (UniProt Q8MZM0). The experiment in a line: Inhibition of AChE in drug-resistant Plutella xylostella (diamondback moth) fourth-instar larvae homogenates at 0.1 mM using acetylthiocholine iodide substrate by colorimetric method.
Details: not given
As usually defined, the inhibition is the change of the read-out against control, counted positive when it falls. Read a high inhibition as a strong effect. “TRIPHENYLSTANNYL 2-(PHENYLCARBAMOYLTHIO)ACETATE” yielded an inhibition of 31.1%.
Same read-out and setting: under “triphenylstannyl 2-(piperidine-1-carbonylthio)acetate” stands 24.4%.
With “S-triphenylstannyl piperidine-1-carbothioate”, the inhibition was 14.8%.
On to “(4-chlorophenyl)diphenylstannyl 2-(phenylcarbamoylthio)acetate”, for which the inhibition turned out to be 15.8%.
“triphenylstannyl 6-(piperidine-1-carbonylthio)hexanoate” registered an inhibition of 27%.
The same measure, in the same setting: under TRIPHENYLSTANNYL 2-([sequence])ACETATE stands 27.6% and 31.8% and 42.1%; under “triphenylstannyl 2-(4-chlorophenylcarbamoylthio)acetate”, 74.6%.
The molecule “triphenylstannyl 2-(2,4-dichlorophenylcarbamoylthio)acetate” displayed an inhibition of 13.4%.
